Data published in ChEMBL document CHEMBL1201862, “PubChem BioAssay data set” (2004).
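Five compound concentrations were applied to cells in 96-well plates for 48 hours; endpoints were derived by simple linear interpolation of the resulting dose-response curve. Abbreviation: GI50, concentration required for 50% inhibition of growth.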 Activity calls are given as the source filed them. Rule as the data show it: active = GI50 up to about 1.1 µM and inactive = higher.

Tests used:
Experiment in all cases: NCI tumour cell line growth inhibition, 48 h
RPMI-8226 = test system: RPMI-8226
SF-539 = test system: SF-539
HCT-116 = test system: HCT-116
COLO 205 = test system: COLO 205
MDA-MB-231 = test system: MDA-MB-231
OVCAR-4 = test system: OVCAR-4
SR = test system: SR
OVCAR-5 = test system: OVCAR-5
KM12 = test system: KM12
786-0 = test system: 786-0
PC-3 = test system: PC-3
HOP-92 = test system: HOP-92
U-251 = test system: U-251
Hs-578T = test system: Hs-578T
OVCAR-8 = test system: OVCAR-8
MCF7 = test system: MCF7
CCRF-CEM = test system: CCRF-CEM
MDA-MB-435 = test system: MDA-MB-435
RXF 393 = test system: RXF 393

SMILES	GI50 (RPMI-8226)	GI50 (SF-539)	GI50 (HCT-116)	GI50 (COLO 205)	GI50 (MDA-MB-231)	GI50 (OVCAR-4)	GI50 (SR)	GI50 (OVCAR-5)	GI50 (KM12)	GI50 (786-0)	GI50 (PC-3)	GI50 (HOP-92)	GI50 (U-251)	GI50 (Hs-578T)	GI50 (OVCAR-8)	GI50 (MCF7)	GI50 (CCRF-CEM)	GI50 (MDA-MB-435)	GI50 (RXF 393)
CC1CN=C(N(Cc2ccccc2)C(=O)Nc2ccc(Cl)c(Cl)c2)S1 (configuration not stated)	33.7 µM (inactive)	33.3 µM (inactive)	27.7 µM (inactive)	31.4 µM (inactive)	27.2 µM (inactive)	61.8 µM (inactive)	29.1 µM (inactive)	29.2 µM (inactive)	40.7 µM (inactive)	30.5 µM (inactive)	31.4 µM (inactive)	21.6 µM (inactive)	32.4 µM (inactive)	53.1 µM (inactive)	49.3 µM (inactive)	52.1 µM (inactive)	> 10 µM (inactive)		
COc1cc(/C=N/c2ccccn2)cc(OC)c1OC	65 µM (inactive)	> 100 µM (inactive)	> 100 µM (inactive)	> 100 µM (inactive)	> 100 µM (inactive)	> 100 µM (inactive)	> 63.2 µM (inactive)	> 100 µM (inactive)	> 100 µM (inactive)	> 100 µM (inactive)		> 100 µM (inactive)	> 100 µM (inactive)	> 100 µM (inactive)	> 100 µM (inactive)	54.5 µM (inactive)	> 100 µM (inactive)	24.5 µM (inactive)	58.7 µM (inactive)
CC(C)(C)OC(=O)C(C#N)C(=O)c1ccc(C(=O)O)[nH]1 (configuration not stated)	22.8 µM (inactive)	51.6 µM (inactive)	38.4 µM (inactive)	40.2 µM (inactive)	29.4 µM (inactive)	19.5 µM (inactive)		48.4 µM (inactive)	34.8 µM (inactive)	51.9 µM (inactive)	33.7 µM (inactive)	12 µM (inactive)	30.6 µM (inactive)		30.1 µM (inactive)		15 µM (inactive)	32.3 µM (inactive)	
COc1ccc(/N=N/c2c(-c3ccccc3)nn(C(=O)CC(=O)Nc3cccc(Cl)c3)c2-c2ccccc2)cc1	> 100 µM (inactive)	68.9 µM (inactive)	45.6 µM (inactive)	> 100 µM (inactive)		67.9 µM (inactive)		61.2 µM (inactive)	10.9 µM (inactive)	> 100 µM (inactive)		40.6 µM (inactive)	> 100 µM (inactive)		> 100 µM (inactive)		> 100 µM (inactive)		
NC(=O)c1ccc(/N=N/O)nc1		> 100 µM (inactive)	> 100 µM (inactive)	> 100 µM (inactive)	> 100 µM (inactive)	> 100 µM (inactive)	> 100 µM (inactive)	> 100 µM (inactive)	> 100 µM (inactive)	> 100 µM (inactive)	> 100 µM (inactive)		> 100 µM (inactive)	> 100 µM (inactive)	> 100 µM (inactive)	> 100 µM (inactive)	> 100 µM (inactive)		
COc1c(OC)c(OC)c(-c2cc(=O)c3c(OC)c(OC)c(OC)c(OC)c3o2)c(OC)c1OC	60.8 µM (inactive)	48.9 µM (inactive)	20.6 µM (inactive)	37.4 µM (inactive)	29.9 µM (inactive)	18.1 µM (inactive)	> 100 µM (inactive)	> 100 µM (inactive)		21.5 µM (inactive)		21.3 µM (inactive)	30.1 µM (inactive)	52.5 µM (inactive)	31.1 µM (inactive)		34 µM (inactive)	34.5 µM (inactive)	27.3 µM (inactive)
CCC(=O)Nc1cccc(NC(=O)c2c(Cl)c(Cl)c(Cl)c(Cl)c2-c2nc3ccccc3[nH]2)c1	8.02 µM (inactive)	> 100 µM (inactive)	7.82 µM (inactive)	53.1 µM (inactive)		71.6 µM (inactive)	17.6 µM (inactive)	> 100 µM (inactive)	0.0968 µM (active)	84.9 µM (inactive)	44.8 µM (inactive)	5.36 µM (inactive)		> 100 µM (inactive)	> 100 µM (inactive)	12.7 µM (inactive)	7.45 µM (inactive)	32.4 µM (inactive)	21.6 µM (inactive)
CCOC(=O)C(C(=O)OCC)C(=O)c1ccccc1C(=O)c1ccccc1		> 100 µM (inactive)	59 µM (inactive)	> 100 µM (inactive)	> 100 µM (inactive)	> 100 µM (inactive)	18.1 µM (inactive)	> 100 µM (inactive)	> 100 µM (inactive)	> 100 µM (inactive)		> 100 µM (inactive)	> 100 µM (inactive)	84.7 µM (inactive)		> 100 µM (inactive)	96.2 µM (inactive)	> 100 µM (inactive)	> 100 µM (inactive)
COC(=O)c1c(O)c2c(c3c1OC(C)(C)CC3)OC(C)(C)CC2		18 µM (inactive)	16.8 µM (inactive)	15 µM (inactive)	13.7 µM (inactive)	32.2 µM (inactive)		18.4 µM (inactive)	16.9 µM (inactive)	16.8 µM (inactive)	17 µM (inactive)		15.2 µM (inactive)	20.8 µM (inactive)	17.6 µM (inactive)	18.2 µM (inactive)	23 µM (inactive)		
CCN(CC)C(=O)N1CN(c2ccccc2)C2(CCN(CCCSc3ccc(F)cc3)CC2)C1=O	5.81 µM (inactive)	8.34 µM (inactive)	2.58 µM (inactive)	1.92 µM (inactive)		6.75 µM (inactive)	3.8 µM (inactive)	14.3 µM (inactive)	10.2 µM (inactive)	12.8 µM (inactive)	6.56 µM (inactive)		11.9 µM (inactive)	2.79 µM (inactive)	15.1 µM (inactive)	4.19 µM (inactive)	4.2 µM (inactive)	12.8 µM (inactive)	16.2 µM (inactive)
CC1N[B@@-](C)(c2ccc(C(F)(F)F)cc2)OC1c1ccccc1 (some centres not stated)	34.7 µM (inactive)		89.3 µM (inactive)	> 100 µM (inactive)	> 100 µM (inactive)	> 100 µM (inactive)	31.3 µM (inactive)	> 100 µM (inactive)		> 100 µM (inactive)	53.3 µM (inactive)	20.4 µM (inactive)	> 100 µM (inactive)		> 100 µM (inactive)	59.7 µM (inactive)	42.6 µM (inactive)	> 100 µM (inactive)	
COc1cn2c(cc1=O)COc1ccc(-c3ccccc3)cc1-2	42.9 µM (inactive)		40 µM (inactive)	56 µM (inactive)		> 85.1 µM (inactive)	15.2 µM (inactive)	> 96.2 µM (inactive)	52.1 µM (inactive)	> 88.1 µM (inactive)	43.2 µM (inactive)	46.9 µM (inactive)	65.2 µM (inactive)		> 76.4 µM (inactive)	21.1 µM (inactive)		39.7 µM (inactive)	> 82.6 µM (inactive)
Cc1cccc(/N=C/c2ccc(N(CCC#N)S(=O)(=O)c3ccccc3)cc2C)c1	63.4 µM (inactive)	> 100 µM (inactive)	> 100 µM (inactive)	> 100 µM (inactive)		> 100 µM (inactive)		> 100 µM (inactive)	> 100 µM (inactive)	> 100 µM (inactive)		33.3 µM (inactive)	> 100 µM (inactive)		42.9 µM (inactive)		19.1 µM (inactive)		
CC(NC(=O)OC(C)(C)C)C(=O)NC(Cc1ccccc1)C(=O)NCC(=O)ON=C1CCCC1 (configuration not stated)	97.5 µM (inactive)	> 100 µM (inactive)	72.8 µM (inactive)	> 100 µM (inactive)	43.5 µM (inactive)	> 100 µM (inactive)	31 µM (inactive)	> 100 µM (inactive)	57.4 µM (inactive)	> 100 µM (inactive)	> 100 µM (inactive)	> 100 µM (inactive)	68.1 µM (inactive)		> 100 µM (inactive)	63.1 µM (inactive)	90.2 µM (inactive)	> 100 µM (inactive)	> 100 µM (inactive)
O=S(=O)(Nc1nccs1)c1ccc(Nc2nc(-c3cccs3)nc3ccc(I)cc23)cc1	4.74 µM (inactive)	17.8 µM (inactive)	8.97 µM (inactive)	6.34 µM (inactive)		26.9 µM (inactive)	22.9 µM (inactive)	40.2 µM (inactive)	7.36 µM (inactive)	15.5 µM (inactive)	5.12 µM (inactive)	9.35 µM (inactive)	11.5 µM (inactive)		22.2 µM (inactive)	8.28 µM (inactive)	3.48 µM (inactive)	11.8 µM (inactive)	36.5 µM (inactive)
CCOC(=O)C1S/C(=N\C(=N)N[N+](=O)[O-])N=C1C (configuration not stated)	> 100 µM (inactive)	> 100 µM (inactive)	> 100 µM (inactive)	> 100 µM (inactive)		> 100 µM (inactive)	> 100 µM (inactive)	> 100 µM (inactive)	> 100 µM (inactive)	> 100 µM (inactive)		> 100 µM (inactive)	> 100 µM (inactive)		> 100 µM (inactive)				> 100 µM (inactive)
CNC(=S)N/N=C(\C(=N/NC(=S)NC)c1ccccn1)c1ccccn1	32.8 µM (inactive)	45.8 µM (inactive)	< 0.0306 µM (active)	1.41 µM (inactive)		10.9 µM (inactive)			14.2 µM (inactive)	5.71 µM (inactive)	1.03 µM (active)	15.2 µM (inactive)	0.289 µM (active)	5.38 µM (inactive)	0.687 µM (active)	< 0.0355 µM (active)		13.8 µM (inactive)	5.07 µM (inactive)
